According to patent publication US11707440B2 (priority 2017, dated 2023):
Where two headings read alike, the source gives them in different places.

Columns and labels:
[1] = test system: subjects with MDD at imminent risk for suicide; experiment: MADRS total score, study […]2001; assay type: in vivo, human; conditions: ITT analysis set; for MADRS total score change, Diff. of LS Means (SE) minus placebo: ANCOVA LOCF
From the text: Primary efficacy variable/Primary Time point: Change from baseline (Day 1, predose) to Day 1, 4-hours postdose in MADRS total score. The MADRS consists of 10 items that cover all of the core depressive symptoms, with each item scoring from 0 (item is not present or is normal) to 6 (severe or continuous presence of the symptom). A higher score represents a more severe condition.
The primary efficacy endpoint is the change in MADRS total score from baseline to Day 1: 4-hours postdose. MADRS total scores range from 0 to 60. […] As this is a phase 2a proof-of-concept study, statistical significance is based on a two-sided alpha level of 0.20. All p-values presented in this document are two-sided.

[2] = test system: subjects with MDD at imminent risk for suicide; experiment: Sustained response, response and remission based on MADRS, […]2001; assay type: in vivo, human; conditions: at least 50 percent reduction from baseline with onset on Day 1 maintained through Day 25; ITT analysis set
From the text: • a. Changes from baseline to Day 2 and Day 25 for the MADRS total score • b. Changes from baseline to Day 1 4-hours postdose, Day 2 and Day 25 for the MADRS Suicide Item • c. Changes from baseline to Day 1 4-hours postdose, Day 2, and Day 25 for the clinical global judgment of suicide risk from the Suicide Ideation and Behavior Assessment Tool (SIBAT) • d. Sustained response (Onset of Clinical Response) defined as at least 50% reduction from baseline in MADRS total score with onset on Day 1 that is maintained through the end of the double-blind phase (Day 25) • e. Changes from baseline to Day 1 4-hours postdose, Day 2, and Day 25 for the Beck Scale for Suicidal Ideation (BSS) • f. Changes from baseline to Day 1 4-hours postdose and Day 25 for the Beck Hopelessness Scale
Sustained response is defined as at least 50% reduction from baseline in MADRS total score with onset on Day 1: 4 hours postdose that is maintained through the end of the double-blind phase (Day 25). Four subjects in the esketamine 84 mg group and 2 subjects in the placebo group had sustained response throughout the double-blind phase.

[3] = test system: subjects with MDD at imminent risk for suicide; experiment: Beck Scale for Suicidal Ideation (BSS), […]2001; assay type: in vivo, human; conditions: for BSS total score change, Diff. of LS Means (SE) minus placebo: ANCOVA LOCF
Method: The BSS is a 21-item self-reported instrument to detect and measure the severity of suicidal ideation in adults and adolescents aged 17 years and older. The BSS total score represents the severity of suicide ideation, and it is calculated by summing the ratings of the first 19 items; the total score ranges from 0 to 38, with a higher score representing greater suicide ideation. Increasing scores reflect increases in suicidal risk.

[4] = test system: subjects with MDD at imminent risk for suicide; conditions: double-blind phase, safety analysis set
[5] = Baseline(DB), predose Day 1, ITT analysis set
[6] = Day 1(DB): 4H, LOCF, ITT analysis set
[7] = Day 2(DB), LOCF, ITT analysis set
[8] = End Point(DB), LOCF, ITT analysis set
[9] = TEAE in ≥5% of subjects in any treatment group
[10] = TEAE leading to study discontinuation

SMILES: CN[C@]1(c2ccccc2Cl)CCCCC1=O [Esketamine 84 mg]
- MADRS total score, Mean (SD) ([1]; Baseline(DB), predose Day 1): 38.5 (6.17)
- MADRS total score, Median (Range) ([1]; Baseline(DB), predose Day 1): 38.0 (27; 49)
- MADRS total score change, Diff. of LS Means (SE) minus placebo ([1]; Day 1(DB): 4H): −5.3 (2.10)
- MADRS total score change from baseline, Mean (SD) ([1]; Day 1(DB): 4H, LOCF): −13.4 (9.03)
- MADRS total score change from baseline, Median (Range) ([1]; Day 1(DB): 4H, LOCF): −14.0 (−32; 1)
- MADRS total score, Median (Range) ([1]; Day 1(DB): 4H, LOCF): 23.0 (7; 48)
- MADRS total score change, Diff. of LS Means (SE) minus placebo ([1]; Day 2(DB)): −7.2 (2.85)
- MADRS total score change from baseline, Mean (SD) ([1]; Day 2(DB), LOCF): −19.3 (12.02)
- MADRS total score change from baseline, Median (Range) ([1]; Day 2(DB), LOCF): −19.0 (−41; 1)
- MADRS total score, Median (Range) ([1]; Day 2(DB), LOCF): 18.0 (3; 42)
- MADRS total score change, Diff. of LS Means (SE) minus placebo ([1]; End Point(DB)): −4.5 (3.14)
- MADRS total score change from baseline, Mean (SD) ([1]; End Point(DB), LOCF): −26.4 (14.52)
- MADRS total score change from baseline, Median (Range) ([1]; End Point(DB), LOCF): −25.0 (−46; 13)
- MADRS total score, Median (Range) ([1]; End Point(DB), LOCF): 8.0 (0; 44)
- Day 25 sustained response based on MADRS total score: No [2]: 30 (88.2%) subjects (%)
- Day 25 sustained response based on MADRS total score: Yes [2]: 4 (118%) subjects (%)
- BSS total score, Mean (SD) [3, 5]: 24.0 (5.45)
- BSS total score, Median (Range) [3, 5]: 25.0 (8; 33)
- BSS total score change, Diff. of LS Means (SE) minus placebo ([3]; Day 1(DB): 4H): −2.3 (2.29)
- BSS total score change from baseline, Mean (SD) [3, 6]: −10.2 (9.74)
- BSS total score change from baseline, Median (Range) [3, 6]: −8.0 (−33; 8)
- BSS total score, Median (Range) [3, 6]: 16.5 (0; 31)
- BSS total score change, Diff. of LS Means (SE) minus placebo ([3]; Day 2(DB)): −1.9 (2.30)
- BSS total score, Mean (SD) [3, 7]: 11.1 (10.12)
- BSS total score, Median (Range) [3, 7]: 13.0 (0; 34)
- BSS total score change, Diff. of LS Means (SE) minus placebo ([3]; End Point(DB)): −1.7 (2.15)
- BSS total score change from baseline, Median (Range) [3, 8]: −21.0 (−33; 8)
- BSS total score, Mean (SD) [3, 8]: 4.7 (9.03)
- BSS total score, Median (Range) [3, 8]: 0.0 (0; 34)
- Abdominal pain [4, 9]: 0 no. subjects (%)
- Acne [4, 9]: 2 (5.7%) no. subjects (%)
- Agitation [4, 9]: 3 (8.6%) no. subjects (%)
- Anxiety [4, 9]: 6 (17.1%) no. subjects (%)
- Blepharospasm [4, 9]: 0 no. subjects (%)
- Blood pressure increased [4, 9]: 2 (5.7%) no. subjects (%)
- Constipation [4, 9]: 0 no. subjects (%)
- Diarrhea [4, 9]: 3 (8.6%) no. subjects (%)
- Diplopia [4, 9]: 2 (5.7%) no. subjects (%)
- Dissociation [4, 9]: 11 (31.4%) no. subjects (%)
- Dizziness [4, 9]: 12 (34.3%) no. subjects (%)
- Dizziness postural [4, 9]: 2 (5.7%) no. subjects (%)
- Dry mouth [4, 9]: 3 (8.6%) no. subjects (%)
- Dysgeusia [4, 9]: 11 (31.4%) no. subjects (%)
- Ear and labyrinth disorders [4, 9]: 9 (25.7%) no. subjects (%)
- Epistaxis [4, 9]: 0 no. subjects (%)
- Euphoric mood [4, 9]: 4 (11.4%) no. subjects (%)
- Eye disorders [4, 9]: 7 (20.0%) no. subjects (%)
- Fatigue [4, 9]: 2 (5.7%) no. subjects (%)
- Feeling abnormal [4, 9]: 3 (8.6%) no. subjects (%)
- Feeling cold [4, 9]: 2 (5.7%) no. subjects (%)
- Flatulence [4, 9]: 1 (2.9%) no. subjects (%)
- Gastrointestinal disorders [4, 9]: 19 (54.3%) no. subjects (%)
- General disorders and administration site conditions [4, 9]: 10 (28.6%) no. subjects (%)
- Headache [4, 9]: 11 (31.4%) no. subjects (%)
- Hyperacusis [4, 9]: 2 (5.7%) no. subjects (%)
- Hyperhidrosis [4, 9]: 2 (5.7%) no. subjects (%)
- Hypoesthesia [4, 9]: 3 (8.6%) no. subjects (%)
- Hypoesthesia oral [4, 9]: 2 (5.7%) no. subjects (%)
- Infections and infestations [4, 9]: 1 (2.9%) no. subjects (%)
- Insomnia [4, 9]: 3 (8.6%) no. subjects (%)
- Intranasal paranesthesia [4, 9]: 0 no. subjects (%)
- Investigations [4, 9]: 5 (14.3%) no. subjects (%)
- Nasal congestion [4, 9]: 1 (2.9%) no. subjects (%)
- Nasal discomfort [4, 9]: 3 (8.6%) no. subjects (%)
- Nausea [4, 9]: 13 (37.1%) no. subjects (%)
- Nervous system disorders [4, 9]: 25 (71.4%) no. subjects (%)
- Oropharyngeal pain [4, 9]: 2 (5.7%) no. subjects (%)
- Panic attack [4, 9]: 0 no. subjects (%)
- Paresthesia [4, 9]: 6 (17.1%) no. subjects (%)
- Paresthesia oral [4, 9]: 2 (5.7%) no. subjects (%)
- Pharyngeal hypoesthesia [4, 9]: 2 (5.7%) no. subjects (%)
- Pollakiuria [4, 9]: 0 no. subjects (%)
- Psychiatric disorders [4, 9]: 20 (57.1%) no. subjects (%)
- Rash [4, 9]: 1 (2.9%) no. subjects (%)
- Renal and urinary disorders [4, 9]: 1 (2.9%) no. subjects (%)
- Respiratory, thoracic and mediastinal disorders [4, 9]: 9 (25.7%) no. subjects (%)
- Rhinalgia [4, 9]: 0 no. subjects (%)
- Rhinorrhoea [4, 9]: 0 no. subjects (%)
- Sedation [4, 9]: 6 (17.1%) no. subjects (%)
- Skin and subcutaneous tissue disorders [4, 9]: 5 (14.3%) no. subjects (%)
- Somnolence [4, 9]: 4 (11.4%) no. subjects (%)
- Suicidal ideation [4, 9]: 2 (5.7%) no. subjects (%)
- Throat irritation [4, 9]: 3 (8.6%) no. subjects (%)
- Tinnitus [4, 9]: 2 (5.7%) no. subjects (%)
- Toothache [4, 9]: 0 no. subjects (%)
- Upper respiratory tract infection [4, 9]: 0 no. subjects (%)
- Vertigo [4, 9]: 4 (11.4%) no. subjects (%)
- Vision blurred [4, 9]: 3 (8.6%) no. subjects (%)
- Vomiting [4, 9]: 7 (20.0%) no. subjects (%)
- Weight increased [4, 9]: 2 (5.7%) no. subjects (%)
- Aggression [4, 10]: 1 (2.9%) no. subjects (%)
- Agitation [4, 10]: 1 (2.9%) no. subjects (%)
- Cardiac disorders [4, 10]: 1 (2.9%) no. subjects (%)
- Dissociative disorder [4, 10]: 0 no. subjects (%)
